Data as given in US8916565B2, “Pyrrolopyrazine-spirocyclic piperidine amides as modulators of ion channels” (priority 2011, dated 2014).

Molecular target: human NaV subtype, like NaV 1.7 (Homo sapiens, UniProt Q15858)
Test: E-VIPR optical membrane potential assay with electrical stimulation
Assay type: cell-based
Details: active against one or more sodium channels; Table 3 does not name the assay or NaV subtype; read-out: Binned Activity Data (IC50)

Chain of human NaV subtype, like NaV 1.7 (Q15858 whole entry): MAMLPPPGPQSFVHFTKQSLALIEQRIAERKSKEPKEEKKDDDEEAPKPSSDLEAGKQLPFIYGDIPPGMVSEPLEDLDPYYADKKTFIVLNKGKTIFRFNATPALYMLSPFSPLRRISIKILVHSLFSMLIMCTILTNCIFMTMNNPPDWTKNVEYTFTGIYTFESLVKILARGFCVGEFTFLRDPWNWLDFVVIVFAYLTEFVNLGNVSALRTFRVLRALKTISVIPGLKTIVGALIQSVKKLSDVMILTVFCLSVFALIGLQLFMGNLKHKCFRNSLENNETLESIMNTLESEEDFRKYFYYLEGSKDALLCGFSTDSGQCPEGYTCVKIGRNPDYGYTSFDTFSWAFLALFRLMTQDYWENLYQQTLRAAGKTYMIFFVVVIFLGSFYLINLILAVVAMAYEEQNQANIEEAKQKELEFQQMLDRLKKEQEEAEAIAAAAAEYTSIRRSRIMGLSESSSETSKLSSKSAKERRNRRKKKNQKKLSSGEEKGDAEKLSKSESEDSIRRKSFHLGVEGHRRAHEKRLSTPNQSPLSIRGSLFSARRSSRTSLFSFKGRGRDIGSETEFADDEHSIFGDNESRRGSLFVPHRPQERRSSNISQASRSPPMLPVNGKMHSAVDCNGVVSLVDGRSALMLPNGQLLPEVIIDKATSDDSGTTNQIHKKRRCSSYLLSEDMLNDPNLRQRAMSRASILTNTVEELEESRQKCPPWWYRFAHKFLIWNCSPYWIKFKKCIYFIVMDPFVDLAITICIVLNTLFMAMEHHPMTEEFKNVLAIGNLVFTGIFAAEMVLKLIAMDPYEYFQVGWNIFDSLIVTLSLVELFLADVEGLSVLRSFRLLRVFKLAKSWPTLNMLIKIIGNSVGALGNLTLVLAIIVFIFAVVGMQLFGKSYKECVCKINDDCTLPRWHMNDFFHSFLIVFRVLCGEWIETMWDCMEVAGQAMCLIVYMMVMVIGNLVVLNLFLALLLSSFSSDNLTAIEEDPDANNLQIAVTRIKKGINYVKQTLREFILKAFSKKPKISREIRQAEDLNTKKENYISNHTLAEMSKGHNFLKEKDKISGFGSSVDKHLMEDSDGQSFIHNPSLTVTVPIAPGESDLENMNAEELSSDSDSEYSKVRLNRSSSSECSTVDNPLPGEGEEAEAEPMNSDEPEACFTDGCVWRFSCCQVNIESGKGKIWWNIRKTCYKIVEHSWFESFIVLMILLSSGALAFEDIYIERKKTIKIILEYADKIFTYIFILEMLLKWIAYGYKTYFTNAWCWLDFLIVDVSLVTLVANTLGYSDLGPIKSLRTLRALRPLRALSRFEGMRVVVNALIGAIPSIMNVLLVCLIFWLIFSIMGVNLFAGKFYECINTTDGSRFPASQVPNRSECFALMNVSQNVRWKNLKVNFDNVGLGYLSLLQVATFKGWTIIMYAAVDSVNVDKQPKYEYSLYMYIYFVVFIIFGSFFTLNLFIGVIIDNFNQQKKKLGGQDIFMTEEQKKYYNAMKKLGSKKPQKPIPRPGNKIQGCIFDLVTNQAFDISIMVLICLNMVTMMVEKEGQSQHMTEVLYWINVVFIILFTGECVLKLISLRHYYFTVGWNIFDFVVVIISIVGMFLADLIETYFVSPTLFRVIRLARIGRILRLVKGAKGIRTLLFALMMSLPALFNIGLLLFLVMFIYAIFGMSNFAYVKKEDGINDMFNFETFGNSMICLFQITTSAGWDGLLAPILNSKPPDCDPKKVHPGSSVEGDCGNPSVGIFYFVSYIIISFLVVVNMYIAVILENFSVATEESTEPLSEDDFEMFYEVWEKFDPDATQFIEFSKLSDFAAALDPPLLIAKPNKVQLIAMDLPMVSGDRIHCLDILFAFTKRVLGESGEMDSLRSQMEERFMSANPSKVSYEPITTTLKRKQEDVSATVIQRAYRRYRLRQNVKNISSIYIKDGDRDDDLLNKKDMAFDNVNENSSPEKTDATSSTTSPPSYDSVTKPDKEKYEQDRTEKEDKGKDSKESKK

Row | SMILES | IC50
1 | Cc1cc(C(=O)N2CCC3(CC2)c2ccc(C(=O)C4CC4)n2CCN3C)ccc1O [Compound 476] | ≤ 2000 nM
2 | CC(C)Oc1ccc(C(=O)N2CCC3(CC2)NCCn2c(C(F)(F)F)ccc23)cc1F [Compound 477] | ≤ 2000 nM
3 | Cc1cc(C(=O)N2CCC3(CC2)c2ccc(C(=O)C(F)(F)F)n2CCN3C)ccc1-c1ccnn1C [Compound 478] | > 5000 nM
4 | CCCN(CCC)S(=O)(=O)c1ccc(C(=O)N2CCC3(CC2)c2ccc(Cl)n2CCN3C)cc1 [Compound 479] | 2000 to 5000 nM
5 | COc1cc(C(=O)N2CCC3(CC2)NC(C)(C)Cn2c(C(=O)C(F)(F)F)ccc23)ccc1COCCC(F)(F)F [Compound 480] | ≤ 2000 nM
6 | CCNc1ccnc2c(C(=O)N3CCC4(CC3)c3ccc(C(F)(F)F)n3CCN4C)cnn12 [Compound 481] | ≤ 2000 nM
7 | CCS(=O)(=O)c1ccc(C(=O)N2CCC3(CC2)c2ccc(C(=O)C(C)(C)C)n2CCN3C)cc1C [Compound 482] | 2000 to 5000 nM
8 | COc1cc(C(=O)N2CCC3(CC2)c2c(F)cc(C(F)(F)F)n2CCN3C)ccc1OC(C)(C)C [Compound 483] | ≤ 2000 nM
9 | COc1ccc(C(=O)N2CCC3(CC2)c2ccc(C(=O)C4CC4)n2CCN3C)cc1Cl [Compound 484] | ≤ 2000 nM
10 | COc1ccc(C(=O)N2CCC3(CC2)c2ccc(C(=O)C(F)(F)F)n2C[C@H](C)N3C)nc1C [Compound 485] | ≤ 2000 nM
11 | CC(C)CS(=O)(=O)c1ccc(C(=O)N2CCC3(CC2)c2ccc(C(F)(F)F)n2CCN3C)cc1 [Compound 486] | ≤ 2000 nM
12 | Cc1cc(C(=O)N2CCC3(CC2)c2ccc(C(=O)C(F)(F)F)n2CCN3C)ccc1C1(O)CCCC1 [Compound 487] | ≤ 2000 nM
13 | CC(C)Oc1ccc(C(=O)N2CCC3(CC2)c2ccc(C(F)(F)F)n2CCN3C)cc1 [Compound 488] | ≤ 2000 nM
14 | CCn1cnc(-c2ccc(C(=O)N3CCC4(CC3)c3ccc(C(=O)C(F)(F)F)n3CCN4C)cc2C)c1 [Compound 489] | ≤ 2000 nM
15 | COc1ccc(C(=O)N2CCC3(CC2)NC(C)(C)Cn2c(C(=O)C(F)(F)F)ccc23)nc1C [Compound 490] | ≤ 2000 nM
16 | CC1(C)Cn2c(C(=O)C(F)(F)F)ccc2C2(CCN(C(=O)c3ccc(O)c(Cl)c3)CC2)N1 [Compound 491] | ≤ 2000 nM
17 | Cc1cc(C(=O)N2CCC3(CC2)c2ccc(C(F)(F)F)n2CCN3C2CC2)ccc1S(=O)(=O)C(C)C [Compound 492] | ≤ 2000 nM
18 | COc1ccc(C(=O)N2CCC3(CC2)c2ccc(C(=O)C4(C)CC4)n2CCN3C)cc1Cl [Compound 493] | ≤ 2000 nM
19 | CN1CCn2c(C(=O)C(F)(F)F)ccc2C12CCN(C(=O)c1ccc(OCC(C)(C)C)cc1)CC2 [Compound 494] | ≤ 2000 nM
20 | Cc1cc(C(=O)N2CCC3(CC2)N[C@@H](C)Cn2c(C(F)(F)F)ccc23)ccc1OC(C)C [Compound 495] | ≤ 2000 nM
21 | CN1CCn2c(C(=O)C(F)(F)F)ccc2C12CCN(C(=O)c1ccc(S(=O)(=O)C3CC3)cc1)CC2 [Compound 496] | 2000 to 5000 nM
22 | COc1ccc(C(=O)N2CCC3(CC2)NCCn2c(C(F)(F)F)ccc23)cc1 [Compound 497] | > 5000 nM
23 | Cc1cc(S(=O)(=O)C(C)C)ccc1C(=O)N1CCC2(CC1)c1ccc(C(F)(F)F)n1CCN2C [Compound 498] | ≤ 2000 nM
24 | CN1CCn2c(C(F)(F)F)ccc2C12CCN(C(=O)c1ccc(CC(C)(C)O)cc1)CC2 [Compound 499] | ≤ 2000 nM
25 | CC(C)S(=O)(=O)c1ccc(C(=O)N2CCC3(CC2)c2ccc(C(=O)C(F)(F)F)n2C[C@H](C)N3C)cc1 [Compound 500] | ≤ 2000 nM

Row | SMILES | IC50
26 | CC(C)COc1ccc(C(=O)N2CCC3(CC2)c2ccc(C(=O)C(F)(F)F)n2CCN3C)cc1 [Compound 501] | ≤ 2000 nM
27 | CN1CCn2c(C(=O)C(F)(F)F)ccc2C12CCN(C(=O)c1ccc(S(=O)(=O)C(C)(C)C)cc1)CC2 [Compound 502] | > 5000 nM
28 | COc1ccc(C(=O)N2CCC3(CC2)NCC(C)n2c(C(=O)C(F)(F)F)ccc23)nc1C (centres unmarked) [Compound 503] | ≤ 2000 nM
29 | CC(=O)c1ccc2n1CCN(C)C21CCN(C(=O)c2ccc(N3CCCCC3)cc2)CC1 [Compound 504] | > 5000 nM
30 | CC1CNC2(CCN(C(=O)c3ccc(COCCC(F)(F)F)cc3)CC2)c2ccc(C(=O)C(F)(F)F)n21 (centres unmarked) [Compound 505] | ≤ 2000 nM
31 | COc1cc(C(=O)N2CCC3(NCCn4c(C(F)(F)F)ccc43)C(C)C2)ccc1OC(C)C (centres unmarked) [Compound 506] | 2000 to 5000 nM
32 | CCCOc1ccc(C(=O)N2CCC3(CC2)c2ccc(C(C)=O)n2CCN3C)cc1 [Compound 507] | > 5000 nM
33 | Cc1cc(C(=O)N2CCC3(CC2)c2ccc(C(=O)C(F)(F)F)n2CCN3C)ccc1S(=O)(=O)C(C)C [Compound 508] | ≤ 2000 nM
34 | CC1(C)Cn2c(C(=O)C(F)(F)F)ccc2C2(CCN(C(=O)c3ccc(OCC4CC4)c(F)c3)CC2)N1 [Compound 509] | ≤ 2000 nM
35 | CCOc1ccc(C(=O)N2CCC3(CC2)c2ccc(C(=O)C(F)(F)F)n2CCN3C)cc1OCC [Compound 510] | ≤ 2000 nM
36 | CCC(CC)(CC)c1ccc(C(=O)N2CCC3(CC2)c2ccc(C(C)=O)n2CCN3C)cc1 [Compound 511] | > 5000 nM
37 | CCc1ccc(C(=O)N2CCC3(CC2)c2ccc(Cl)n2CCN3C)cc1OC [Compound 512] | 2000 to 5000 nM
38 | CC[C@@H](C)Oc1ccc(C(=O)N2CCC3(CC2)c2c(F)cc(C(F)(F)F)n2CCN3C)cc1OC [Compound 513] | ≤ 2000 nM
39 | COc1ncccc1-c1ccc(C(=O)N2CCC3(CC2)c2ccc(C(=O)C(F)(F)F)n2CCN3C)cc1C [Compound 514] | > 5000 nM
40 | Cc1cc(C(=O)N2CCC3(CC2)c2ccc(C(F)(F)F)n2CCN3C)ccc1S(C)(=O)=O [Compound 515] | > 5000 nM
41 | COc1cc(C(=O)N2CCC3(CC2)c2ccc(C(=O)C(F)(F)F)n2CCN3C)ccc1OCC(C)C [Compound 516] | ≤ 2000 nM
42 | CN1CCn2c(C(=O)C(F)(F)F)ccc2C12CCN(C(=O)c1ccc(OS(=O)(=O)C(F)(F)F)cc1)CC2 [Compound 517] | ≤ 2000 nM
43 | CN1CCn2c(C(F)(F)F)ccc2C12CCN(C(=O)c1cccnc1N1CCC(F)C1)CC2 (centres unmarked) [Compound 518] | ≤ 2000 nM
44 | CC(=O)c1ccc2n1CCN(C)C21CCN(C(=O)c2ccc(C(C)C)cc2)CC1 [Compound 519] | > 5000 nM
45 | CC(=O)c1ccc2n1CCN(C)C21CCN(C(=O)c2ccc(OCC(F)(F)F)cc2)CC1 [Compound 520] | ≤ 2000 nM
46 | COc1ccc(C(=O)N2CCC3(CC2)c2ccc(C(=O)C4CC4)n2CCN3C)cc1C [Compound 521] | ≤ 2000 nM
47 | CC[C@H](C)Oc1ccc(C(=O)N2CCC3(CC2)NCCn2c(C(F)(F)F)ccc23)cc1OC [Compound 522] | ≤ 2000 nM
48 | Cc1cc(C(=O)N2CCC3(CC2)c2ccc(C(=O)C(C)(C)C)n2CCN3C)ccc1C(C)(C)O [Compound 523] | ≤ 2000 nM
49 | Cc1cc(C(=O)N2CCC3(CC2)NCC(C)n2c(C(=O)C(F)(F)F)ccc23)ccc1OC(C)C (centres unmarked) [Compound 524] | ≤ 2000 nM
50 | CC[C@H](C)Oc1ccc(C(=O)N2CCC3(CC2)c2ccc(C(F)(F)F)n2CCN3C)cc1OC [Compound 525] | ≤ 2000 nM

Row | SMILES | IC50
51 | Cc1cc(C(=O)N2CCC3(CC2)c2c(C#N)cc(C(F)(F)F)n2CCN3C)ccc1OC(C)C [Compound 526] | ≤ 2000 nM
52 | O=C(c1ccnc2ccccc12)N1CCC2(CC1)NCCn1c(C(F)(F)F)ccc12 [Compound 527] | > 5000 nM
53 | CC(C)Oc1ccc(C(=O)N2CCC3(CC2)c2ccc(C(=O)C(F)(F)F)n2CCN3C)cc1Cl [Compound 528] | ≤ 2000 nM
54 | COc1ccc(C(=O)N2CCC3(CC2)c2cc(C(=O)C(F)(F)F)cn2C(C)(C)CN3C)cc1Cl [Compound 529] | > 5000 nM
55 | CC(C)CCOc1ccc(C(=O)N2CCC3(CC2)c2ccc(Cl)n2CCN3C)cc1 [Compound 530] | ≤ 2000 nM
56 | Cc1cc(C(=O)N2CCC3(CC2)c2ccc(Cl)n2CCN3C)ccc1OCC(C)(C)O [Compound 531] | ≤ 2000 nM
57 | CC(=O)c1ccc2n1CCN(C)C21CCN(C(=O)c2ccc(S(=O)(=O)NC3CC3)cc2)CC1 [Compound 532] | > 5000 nM
58 | CNC(=O)N1CCn2c(C(F)(F)F)ccc2C12CCN(C(=O)c1ccc(OC(C)C)c(C)c1)CC2 [Compound 533] | ≤ 2000 nM
59 | Cc1cc(C(=O)N2CCC3(CC2)c2ccc(CC(F)(F)F)n2CCN3C)ccc1S(=O)(=O)C(C)C [Compound 534] | > 5000 nM
60 | COc1cc(C(=O)N2CCC3(CC2)c2ccc(C(C)=O)n2CCN3C)ccc1OC(C)C [Compound 535] | > 5000 nM
61 | CC(=O)c1ccc2n1C(C)(C)CN(C)C21CCN(C(=O)c2ccc(OC(C)C)c(C(F)(F)F)c2)CC1 [Compound 536] | 2000 to 5000 nM
62 | CCc1ccc(C(=O)N2CCC3(CC2)c2ccc(C(=O)C(F)(F)F)n2CCN3C)cc1OC [Compound 537] | ≤ 2000 nM
63 | CCCOc1ccc(C(=O)N2CCC3(CC2)c2ccc(C(=O)C(F)(F)F)n2CCN3C)cc1OC [Compound 538] | ≤ 2000 nM
64 | CCCCOc1cc(C(=O)N2CCC3(CC2)c2ccc(Cl)n2CCN3C)ccc1OC [Compound 539] | > 5000 nM
65 | COc1cc(C(=O)N2CCC3(CC2)c2c(F)cc(C(F)(F)F)n2CCN3C)ccc1OCCO [Compound 540] | > 5000 nM
66 | COc1cc(C(=O)N2CCC3(CC2)c2ccc(C(C)=O)n2CCN3C)ccc1OCCOC(F)(F)F [Compound 541] | ≤ 2000 nM
67 | Cc1cc(C(=O)N2CCC3(CC2)c2ccc(S(C)(=O)=O)n2CCN3C)ccc1OC(C)C [Compound 542] | > 5000 nM
68 | COc1cc(C(=O)N2CCC3(CC2)c2ccc(C(F)(F)F)n2CCN3C)cc(F)c1OC(C)C [Compound 544] | ≤ 2000 nM
69 | COc1cc(C(=O)N2CCC3(c4ccc(C(F)(F)F)n4CCN3C)C(C)C2)ccc1OC(C)C (centres unmarked) [Compound 545] | 2000 to 5000 nM
70 | CC(C)Oc1ccc(C(=O)N2CCC3(CC2)c2ccc(C(F)(F)F)n2CCN3C)c(F)c1 [Compound 546] | ≤ 2000 nM
71 | COc1cc(C(=O)N2CCC3(CC2)c2ccc(CC(F)(F)F)n2CCN3C)ccc1OC(C)C [Compound 547] | > 5000 nM
72 | CC(C)Oc1ccc(C(=O)N2CCC3(CC2)c2c(C#N)cc(C(F)(F)F)n2CCN3C)cc1Cl [Compound 548] | ≤ 2000 nM
73 | CC(C)Oc1ccc(C(=O)N2CCC3(CC2)NCCn2c(C(F)(F)F)ccc23)cc1CO [Compound 549] | ≤ 2000 nM
74 | CCCOc1ccc(C(=O)N2CCC3(CC2)NCCn2c(C(F)(F)F)ccc23)cc1OC [Compound 550] | ≤ 2000 nM
